Reference: patent publication US20260070945A1, “MACROCYCLIC IMMUNOMODULATORS” (Bristol-Myers Squibb Company, priority 2022, published 2026)
*1 amine or outer side, *2 acyl side, *3 side chain or, on linkers, in order; H or OH if unused. Where a SMILES comes first, the peptide text is derived from it. Bridges are numbered along the chain shown (N, C = ends). [ ]: non-standard residue; d: D form. The star is where a group is joined. ξ: configuration not given here. Phe(3-CF3) = N[C@@H](Cc1cccc(C(F)(F)F)c1)C(=O)O; Phe(4-COOH) = N[C@@H](Cc1ccc(C(=O)O)cc1)C(=O)O; Bip = N[C@@H](Cc1ccc(-c2ccccc2)cc1)C(=O)O; Phe(3-Me) = Cc1cccc(C[C@H](N)C(=O)O)c1; γGlu = O=C(O)[C@H](CCC(=O)[*:2])N[*:1]; NH(CH2)12COOH = O=C(O)CCCCCCCCCCCCN*; Val(3-OH) = CC(C)(O)[C@H](N)C(=O)O; aIle = CC[C@@H](C)[C@H](N)C(=O)O; 4Pal = N[C@@H](Cc1ccncc1)C(=O)O; Cha = N[C@@H](CC1CCCCC1)C(=O)O; Cit = NC(=O)NCCC[C@H](N)C(=O)O; Ile(3ξ) = CCC(C)[C@H](N)C(=O)O; Thr(3ξ) = CC(O)[C@H](N)C(=O)O; 12Ado = NCCCCCCCCCCCC(=O)O; Carboxymethyl = O=C(O)C*; NMeA = CN[C@@H](C)C(=O)O; Nle = CCCC[C@H](N)C(=O)O; Orn = NCCC[C@H](N)C(=O)O; Aun = NCCCCCCCCCCC(=O)O; Dab = NCC[C@H](N)C(=O)O; Dap = NC[C@H](N)C(=O)O; AEEA = NCCOCCOCC(=O)O

What follows are compounds tested against T1, PD-1/PD-L1 interaction (PE-labeled human PD-L1-Ig binding to Jurkat cell line over-expressing human PD-1) (Homo sapiens, UniProt Q15116) (assay: Jurkat-PD-1 Cell Binding High-Content Screening Assay (CBA)). Details: Jurkat-hPD-1 cells, PE-labeled PD-L1-Ig 20 nM final; read-out: Jurkat HPD1 PDL1 IC50.
T1 construct: expressed in transfected cells; host or cells: Jurkat
T1 sequence (Q15116 25-288): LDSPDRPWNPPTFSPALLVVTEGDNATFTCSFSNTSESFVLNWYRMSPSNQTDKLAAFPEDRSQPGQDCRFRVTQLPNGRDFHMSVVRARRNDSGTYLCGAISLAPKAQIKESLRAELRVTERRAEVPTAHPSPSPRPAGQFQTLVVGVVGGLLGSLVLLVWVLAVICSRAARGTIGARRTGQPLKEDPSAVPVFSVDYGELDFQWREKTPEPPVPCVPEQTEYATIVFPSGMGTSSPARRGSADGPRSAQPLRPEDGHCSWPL
Summary of the method: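 Compound is added first to the PD-1-expressing Jurkat cells and held 2 h at 37 °C in serum-containing DMEM. The fluorescent PD-L1 fusion follows at 20 nM final for 1 h. Fixed, Hoechst-stained cells are then imaged for bound label.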

IC50	Compound
119 nM	CC(C)C[C@H]1NC(=O)[C@H](C)N(C)C(=O)[C@H](Cc2ccc(OCC(=O)O)cc2)NC(=O)[C@H](Cc2ccc(-c3ccccc3)cc2)NC(=O)[C@H](Cc2ccc(OCC(=O)O)cc2)NC(=O)[C@H](Cc2c[nH]c3ccccc23)NC(=O)[C@H](CC(=O)O)NC(=O)[C@H](Cc2ccncc2)NC(=O)[C@H](Cc2ccc(OCC(=O)O)cc2)NC(=O)CSC[C@@H](C(=O)N[C@@H](CCN)C(=O)NCCOCCOCC(=O)NCCCCCCCCCCC(=O)O)NC(=O)[C@H](CCCN)NC(=O)[C@H](C(C)C)NC(=O)[C@H](CC2CCCCC2)NC(=O)[C@H](CC(N)=O)NC1=O [Example 1380] ({CH2CO}-Y(Carboxymethyl)[4Pal]DWY(Carboxymethyl)[Bip]Y(Carboxymethyl)[NMeA][dL]N[Cha]V[Orn]C[Dab][AEEA][Aun]-OH; thioether N-14)
21.8 nM	COC[C@@H]1NC(=O)CSC[C@@H](C(=O)N[C@@H](CCN)C(=O)NCCOCCOCC(=O)N[C@@H](CCC(=O)NCCOCCOCC(=O)NCCCCCCCCCCCCC(=O)O)C(=O)O)NC(=O)[C@H](CCCCNC(C)=O)NC(=O)[C@H](C(C)(C)O)NC(=O)[C@H](CC2CCCCC2)NC(=O)[C@H](CCN)NC(=O)[C@@H](CC(C)C)NC(=O)[C@H](C)N(C)C(=O)[C@H](CCC(N)=O)NC(=O)[C@H](Cc2ccc(-c3ccccc3)cc2)NC(=O)[C@H](Cc2ccc(C(=O)O)cc2)NC(=O)[C@H](Cc2cccc(C(F)(F)F)c2)NC(=O)[C@H](CC(=O)O)NC(=O)[C@H](Cc2ccc(OCC(=O)O)cc2)NC1=O [Example 1165] ({CH2CO}-S(Me)Y(Carboxymethyl)D[Phe(3-CF3)][Phe(4-COOH)][Bip]Q[NMeA][dL][Dab][Cha][Val(3-OH)]K(Ac)C[Dab][AEEA][γGlu][AEEA]-{NH(CH2)12COOH}; thioether N-14)
59.9 nM	CCC(C)[C@@H]1NC(=O)[C@H](Cc2ccc(-c3ccccc3)cc2)NC(=O)[C@H](CC(C)C)NC(=O)[C@H](Cc2c[nH]c3ccccc23)NC(=O)[C@H](CC(=O)O)NC(=O)[C@H](Cc2ccc(OCC(=O)O)cc2)NC(=O)[C@H](C(C)O)NC(=O)CSC[C@@H](C(=O)N[C@H](CC(N)=O)C(=O)NCCOCCOCC(=O)NCCCCCCCCCCC(=O)O)NC(=O)[C@H](CO)NC(=O)[C@H](C(C)C)NC(=O)[C@H](CC(C)C)NC(=O)[C@H](CCN)NC(=O)[C@@H](CC(C)C)NC(=O)[C@H](C)N(C)C1=O (stereo partly drawn) [Example 2058] ({CH2CO}-[Thr(3ξ)]Y(Carboxymethyl)DWL[Bip][Ile(3ξ)][NMeA][dL][Dab]LVSC[dN][AEEA][Aun]-OH; thioether N-14)
5.5 nM	Cc1cccc(C[C@@H]2NC(=O)[C@H](CC(=O)O)NC(=O)[C@H](Cc3ccc(OCC(=O)O)cc3)NC(=O)[C@H](C(C)O)NC(=O)CSC[C@@H](C(=O)N[C@H](CC(N)=O)C(=O)NCCCCCCCCCCC(=O)O)NC(=O)[C@H](C(C)O)NC(=O)[C@H](C(C)C)NC(=O)[C@H](CC3CCCCC3)NC(=O)[C@H](CCN)NC(=O)[C@@H](CC(C)C)NC(=O)[C@H](C)N(C)C(=O)[C@H](CCCNC(=N)N)NC(=O)[C@H](Cc3ccc(-c4ccccc4)cc3)NC(=O)[C@H](Cc3ccc(O)cc3)NC2=O)c1 (stereo partly drawn) [Example 2338] ({CH2CO}-[Thr(3ξ)]Y(Carboxymethyl)D[Phe(3-Me)]Y[Bip]R[NMeA][dL][Dab][Cha]V[Thr(3ξ)]C[dN][Aun]-OH; thioether N-14)
59 nM	CC(C)C[C@@H]1NC(=O)[C@H](Cc2c[nH]c3ccccc23)NC(=O)[C@H](CC(=O)O)NC(=O)[C@H](Cc2ccc(OCC(=O)O)cc2)NC(=O)[C@H](Cc2ccccc2)NC(=O)CSC[C@@H](C(=O)N[C@@H](CCCN)C(=O)NCCCCCCCCCCC(=O)O)NC(=O)[C@H]([C@@H](C)O)NC(=O)[C@H](C(C)C)NC(=O)[C@H](CC(C)C)NC(=O)[C@H](CC(N)=O)NC(=O)[C@@H](CC(C)C)NC(=O)[C@H](C)N(C)C(=O)[C@H](C(C)C)NC(=O)[C@H](Cc2ccc(-c3ccccc3)cc2)NC1=O [Example 1335] ({CH2CO}-FY(Carboxymethyl)DWL[Bip]V[NMeA][dL]NLVTC[Orn][Aun]-OH; thioether N-14)
8.3 nM	CC(=O)NCCCC[C@@H]1NC(=O)[C@H](Cc2ccc(-c3ccccc3)cc2)NC(=O)[C@H](C(C)C)NC(=O)[C@H](Cc2cccc(C)c2)NC(=O)[C@H](CC(=O)O)NC(=O)[C@H](Cc2ccc(OCC(=O)O)cc2)NC(=O)[C@H](CCCNC(=N)N)NC(=O)CSC[C@@H](C(=O)N[C@H](CCC(=O)O)C(=O)NCCCCCCCCCCCC(=O)O)NC(=O)[C@H](C(C)O)NC(=O)[C@H](C(C)C)NC(=O)[C@H](CC2CCCCC2)NC(=O)[C@H](CCN)NC(=O)[C@@H](CC(C)C)NC(=O)[C@H](C)N(C)C1=O (stereo partly drawn) [Example 2388] ({CH2CO}-RY(Carboxymethyl)D[Phe(3-Me)]V[Bip]K(Ac)[NMeA][dL][Dab][Cha]V[Thr(3ξ)]C[dE][12Ado]-OH; thioether N-14)
25 nM	Cc1cccc(C[C@@H]2NC(=O)[C@H](CC(=O)O)NC(=O)[C@H](Cc3ccc(C(=O)O)cc3)NC(=O)[C@H](Cc3ccc(OCC(=O)O)cc3)NC(=O)CSC[C@@H](C(=O)NCCCCCCCCCCC(=O)O)NC(=O)[C@H](CCCNC(N)=O)NC(=O)[C@H](C(C)C)NC(=O)[C@H](CC3CCCCC3)NC(=O)[C@H](CCN)NC(=O)[C@@H](CC(C)C)NC(=O)[C@H](C)N(C)C(=O)[C@H](CC(C)C)NC(=O)[C@H](Cc3ccc(-c4ccccc4)cc3)NC(=O)[C@H](CC(C)C)NC2=O)c1 [Example 2245] ({CH2CO}-Y(Carboxymethyl)[Phe(4-COOH)]D[Phe(3-Me)]L[Bip]L[NMeA][dL][Dab][Cha]V[Cit]C[Aun]-OH; thioether N-14)
8.6 nM	CC(C)C[C@@H]1NC(=O)[C@H](Cc2c[nH]c3ccccc23)NC(=O)[C@H](CC(=O)O)NC(=O)[C@H](Cc2ccc(C(=O)O)cc2)NC(=O)[C@H](Cc2ccc(OCC(=O)O)cc2)NC(=O)CSC[C@@H](C(=O)N[C@@H](CN)C(=O)NCCCCCCCCCCC(=O)O)NC(=O)[C@H](CCCNC(N)=O)NC(=O)[C@H](C(C)C)NC(=O)[C@H](CC2CCCCC2)NC(=O)[C@H](CCN)NC(=O)[C@@H](CC(C)C)NC(=O)[C@H](C)N(C)C(=O)[C@H](C(C)C)NC(=O)[C@H](Cc2ccc(-c3ccccc3)cc2)NC1=O [Example 1098] ({CH2CO}-Y(Carboxymethyl)[Phe(4-COOH)]DWL[Bip]V[NMeA][dL][Dab][Cha]V[Cit]C[Dap][Aun]-OH; thioether N-14)
9.9 nM	CCC(C)[C@@H]1NC(=O)[C@H](Cc2ccc(-c3ccccc3)cc2)NC(=O)[C@H](C(C)C)NC(=O)[C@H](Cc2c[nH]c3ccccc23)NC(=O)[C@H](CC(=O)O)NC(=O)[C@H](Cc2ccc(OCC(=O)O)cc2)NC(=O)[C@H](Cc2ccncc2)NC(=O)CSC[C@@H](C(=O)N[C@H](CC(N)=O)C(=O)NCCOCCOCC(=O)NCCCCCCCCCCC(=O)O)NC(=O)[C@H](CO)NC(=O)[C@H](C(C)C)NC(=O)[C@H](CC2CCCCC2)NC(=O)[C@H](CCN)NC(=O)[C@@H](CC(C)C)NC(=O)[C@H](C)N(C)C1=O (stereo partly drawn) [Example 2028] ({CH2CO}-[4Pal]Y(Carboxymethyl)DWV[Bip][Ile(3ξ)][NMeA][dL][Dab][Cha]VSC[dN][AEEA][Aun]-OH; thioether N-14)
40.7 nM	CC[C@H](C)[C@@H]1NC(=O)[C@H](Cc2ccc(-c3ccccc3)cc2)NC(=O)[C@H](CC(C)C)NC(=O)[C@H](Cc2c[nH]c3ccccc23)NC(=O)[C@H](CC(=O)O)NC(=O)[C@H](Cc2ccc(C(=O)O)cc2)NC(=O)[C@H](Cc2ccc(OCC(=O)O)cc2)NC(=O)CSC[C@@H](C(=O)NCCOCCOCC(=O)NCCCCCCCCCCC(=O)O)NC(=O)[C@H](CO)NC(=O)[C@H](C(C)C)NC(=O)[C@H](CC2CCCCC2)NC(=O)[C@H](CCN)NC(=O)[C@@H](CC(C)C)NC(=O)[C@H](C)N(C)C1=O [Example 1069] ({CH2CO}-Y(Carboxymethyl)[Phe(4-COOH)]DWL[Bip]I[NMeA][dL][Dab][Cha]VSC[AEEA][Aun]-OH; thioether N-14)
38.8 nM	CC[C@@H](C)[C@@H]1NC(=O)[C@H](Cc2ccc(-c3ccccc3)cc2)NC(=O)[C@H](C(C)C)NC(=O)[C@H](Cc2c[nH]c3ccccc23)NC(=O)[C@H](CC(=O)O)NC(=O)[C@H](Cc2ccc(OCC(=O)O)cc2)NC(=O)[C@H](Cc2ccncc2)NC(=O)CSC[C@@H](C(=O)N[C@H](C)C(=O)NCCOCCOCC(=O)N[C@@H](CCC(=O)NCCOCCOCC(=O)N[C@@H](CCC(=O)NCCOCCOCC(=O)N[C@@H](CCCN)C(=O)NCCCCCCCCCCC(=O)O)C(=O)O)C(=O)O)NC(=O)[C@H](CO)NC(=O)[C@H](C(C)C)NC(=O)[C@H](CC2CCCCC2)NC(=O)[C@H](CC(N)=O)NC(=O)[C@@H](CC(C)C)NC(=O)[C@H](C)N(C)C1=O [Example 2016] ({CH2CO}-[4Pal]Y(Carboxymethyl)DWV[Bip][aIle][NMeA][dL]N[Cha]VSC[dA][AEEA][γGlu][AEEA][γGlu][AEEA][Orn][Aun]-OH; thioether N-14)

Same assay, conditions: PE-labeled PD-L1-Ig 20 nM final, Jurkat-hPD-1 cells; read-out: Jurkat HPD1 PDL1 IC50

IC50	Compound
88.3 nM	CCCC[C@@H]1NC(=O)CSC[C@@H](C(=O)N[C@@H](CCN)C(=O)NCCOCCOCC(=O)N[C@@H](CCC(=O)NCCOCCOCC(=O)NCCCCCCCCCCCCC(=O)O)C(=O)O)NC(=O)[C@H](CCC(=O)O)NC(=O)[C@H](C(C)C)NC(=O)[C@H](CC2CCCCC2)NC(=O)[C@H](CCN)NC(=O)[C@@H](CC(C)C)NC(=O)[C@H](C)N(C)C(=O)[C@H](Cc2ccc(OCC(=O)O)cc2)NC(=O)[C@H](Cc2ccc(-c3ccccc3)cc2)NC(=O)[C@H](Cc2ccc(OCC(=O)O)cc2)NC(=O)[C@H](Cc2cccc(C)c2)NC(=O)[C@H](CC(=O)O)NC(=O)[C@H](Cc2ccc(OCC(=O)O)cc2)NC1=O [Example 2657] ({CH2CO}-[Nle]Y(Carboxymethyl)D[Phe(3-Me)]Y(Carboxymethyl)[Bip]Y(Carboxymethyl)[NMeA][dL][Dab][Cha]VEC[Dab][AEEA][γGlu][AEEA]-{NH(CH2)12COOH}; thioether N-14)
